Assay results taken from patent US20210221848A1, “POLYMYXIN DERIVATIVES AND THEIR USE IN COMBINATION THERAPY TOGETHER WITH DIFFERENT ANTIBIOTICS” (priority 2014, published 2021).
Where two headings read alike, the source gives them in different places.

Tests used:
[1] = test system: K. pneumoniae strains with elevated MICs to Polymyxin B; assay: MIC against strains with elevated MICs to Polymyxin B; assay type: cell-based, Klebsiella pneumoniae; details: Table 6D; for MIC K. pneumoniae 063: strain 063, elevated MIC to Polymyxin B; for MIC K. pneumoniae 062: strain 062, elevated MIC to Polymyxin B; for MIC K. pneumoniae 064: strain 064, elevated MIC to Polymyxin B; for MIC K. pneumoniae 655: strain 655, elevated MIC to Polymyxin B
Experimental: (§1) The inoculum was prepared by making a direct suspension of isolated colonies (selected from an 18-24 hour Mueller-Hinton agar plate) adjusted to the 0.5 McFarland standard. […] The assays were performed in duplicate. […] In cases where the duplicate values varied by less than 2-fold, the lower of the two values is reported. If a variation of greater than 2-fold was observed, the assay was considered non-valid. Several of the compounds were subjected to multiple tests, and where this is the case, the MIC reflects the modal value obtained.
(§2) The Further Synthesis Examples were tested against a range of Gram negative bacteria, and tested for HK-2 cell toxicity. All the worked examples, including the Synthesis and Further Synthesis Examples, were also tested against a range of Gram negative bacteria that are resistant to Polymyxin B (i.e. those strains where Polymyxin B has an elevated MIC value).

[2] = test system: P. aeruginosa strains with elevated MICs to Polymyxin B; assay: MIC against strains with elevated MICs to Polymyxin B; assay type: cell-based, Pseudomonas aeruginosa; details: Table 6D; for MIC P. aeruginosa 065: strain 065, elevated MIC to Polymyxin B; for MIC P. aeruginosa 066: strain 066, elevated MIC to Polymyxin B; for MIC P. aeruginosa 067: strain 067, elevated MIC to Polymyxin B
Experimental: as §1, §2

[3] = test system: A. baumanii strains with elevated MICs to Polymyxin B; assay: as above; assay type: cell-based, Acinetobacter baumannii; details: Table 6D; for MIC A. baumannii 053: strain 053, elevated MIC to Polymyxin B; for MIC A. baumannii 068: strain 068, elevated MIC to Polymyxin B; for MIC A. baumannii 056: strain 056, elevated MIC to Polymyxin B; for MIC A. baumannii 070: strain 070, elevated MIC to Polymyxin B
Experimental: as §1, §2

[4] = test system: E. coli strains with elevated MICs to Polymyxin B; assay: MIC against strains with elevated MICs to Polymyxin B; assay type: cell-based, Escherichia coli; details: Table 6D; for MIC E. coli 058: strain 058, elevated MIC to Polymyxin B; for MIC E. coli 059: strain 059, elevated MIC to Polymyxin B; for MIC E. coli 060: strain 060, elevated MIC to Polymyxin B; for MIC E. coli 061: strain 061, elevated MIC to Polymyxin B
Experimental: as §1, §2

[5] = absence of a second agent, Table 6B

Substance	MIC, A. baumannii ATCC BAA-747 (A. baumannii; sole activity, Table 6C) [micrograms/mL]	MIC, A. baumannii NCTC 13424 (A. baumannii; sole activity, Table 6C) [micrograms/mL]	MIC K. pneumoniae 063 [1] [micrograms/mL]	MIC, K. pneumoniae ATCC 4352 (K. pneumoniae; sole activity, Table 6C) [micrograms/mL]	MIC P. aeruginosa 065 [2] [micrograms/mL]	MIC A. baumannii 053 [3] [micrograms/mL]	MIC A. baumannii 068 [3] [micrograms/mL]	MIC, E. coli ATCC 25922 (E. coli; sole activity, Table 6C) [micrograms/mL]	MIC E. coli 058 [4] [micrograms/mL]	MIC E. coli 059 [4] [micrograms/mL]	MIC E. coli 060 [4] [micrograms/mL]	MIC, P. aeruginosa ATCC 27853 (P. aeruginosa; sole activity, Table 6C) [micrograms/mL]	MIC, P. aeruginosa CCUG 59347 (P. aeruginosa; sole activity, Table 6C) [micrograms/mL]	MIC K. pneumoniae 062 [1] [micrograms/mL]	MIC K. pneumoniae 064 [1] [micrograms/mL]	MIC K. pneumoniae 655 [1] [micrograms/mL]	MIC P. aeruginosa 066 [2] [micrograms/mL]	MIC P. aeruginosa 067 [2] [micrograms/mL]	MIC A. baumannii 056 [3] [micrograms/mL]	MIC A. baumannii 070 [3] [micrograms/mL]	further results
1-(2- hydroxybenzyl)pi- perazine-2- carbonyl Polymyxin B nonapeptide [Example D67]	0.5	0.25	128	0.03	4	>256	64	0.06	8	64	16	0.25	0.5								MIC, K. pneumoniae ATCC BAA-2146 (K. pneumoniae; sole activity, Table 6C): 0.06 micrograms/mL; MIC, E. coli NCTC 13441 (E. coli; sole activity, Table 6C): 0.125 micrograms/mL
1-(2- trifluoromethylben- zyl)piperazine- 2-carbonyl L-Thr- L-Dap-polymyxin B heptapeptide [Example D71]	0.5	0.25	16	0.25	0.5	64	4	0.25	1	8	4	0.5	1	32	4	32	1	16	16	8	MIC, K. pneumoniae ATCC BAA-2146 (K. pneumoniae; sole activity, Table 6C): 0.5 micrograms/mL; MIC, E. coli NCTC 13441 (E. coli; sole activity, Table 6C): 0.25 micrograms/mL; MIC E. coli 061 [4]: 8 micrograms/mL
1-(2- trifluoromethylben- zyl)piperazine- 2-carbonyl polymyxin E nonapeptide [Example D72]	0.125		32	0.125		>128	64	0.25		16	8	0.5	1	64		64			128	128	MIC, K. pneumoniae ATCC BAA-2146 (K. pneumoniae; sole activity, Table 6C): 0.25 micrograms/mL; MIC, E. coli NCTC 13441 (E. coli; sole activity, Table 6C): 0.25 micrograms/mL; MIC E. coli 061 [4]: 16 micrograms/mL
3-aminomethyl- undecanoyl L- Thr-L-Dap- polymyxin B heptapeptide [Example D91]	0.25	0.5	16	0.25		8	2	0.5	1	0.5	2	0.5	0.5	8	4	8	2	16	2	1	MIC E. coli 061 [4]: 4 micrograms/mL
3-aminomethyl- undecanoyl L- Thr-L-Dap- polymyxin B heptapeptide [Example D92]	0.5	0.25	8	0.25	0.5	8	1	0.5	0.5	0.5	1	0.25	0.5	2	2	4	1	8	4	1	MIC E. coli 061 [4]: 4 micrograms/mL
3-aminomethyl- undecanoyl polymyxin B nonapeptide [Example D32]			32			32	4			1	2			8	2	32	4	32	8	8	MIC, A. baumannii ATCC BAA-747 (A. baumannii; [5]): 2 micrograms/mL; MIC, A. baumannii NCTC 13424 (A. baumannii; [5]): 1 micrograms/mL; MIC, K. pneumoniae ATCC 4352 (K. pneumoniae; [5]): 1 micrograms/mL; MIC, E. coli ATCC 25922 (E. coli; [5]): 1 micrograms/mL; MIC, E. coli NCTC 13441 (E. coli; [5]): 1 micrograms/mL; MIC E. coli 061 [4]: 8 micrograms/mL; MIC, P. aeruginosa ATCC 27853 (P. aeruginosa; [5]): 0.5 micrograms/mL; MIC, P. aeruginosa CCUG 59347 (P. aeruginosa; [5]): 1 micrograms/mL
(S)-4-amino-2- (((S)-6- methyloctanoyl)ox- y)butanoyl polymyxin B nonapeptide [Example D93]	0.25	0.5		0.25	2			0.25	8			0.25	1								
(cis-5- cyclohexylpiperidine)- 3-carbonyl L-Thr-L- Dap-polymyxin B heptapeptide [Example D44]					1				2						2	32	0.5	64			MIC, A. baumannii ATCC BAA-747 (A. baumannii; [5]): 0.25 micrograms/mL; MIC, K. pneumoniae ATCC BAA-2146 (K. pneumoniae; [5]): 0.5 micrograms/mL; MIC, E. coli ATCC 25922 (E. coli; [5]): 1 micrograms/mL; MIC, E. coli NCTC 13441 (E. coli; [5]): 0.5 micrograms/mL; MIC, P. aeruginosa ATCC 27853 (P. aeruginosa; [5]): 0.25 micrograms/mL; MIC, P. aeruginosa CCUG 59347 (P. aeruginosa; [5]): 0.5 micrograms/mL
Cis-5-(N- isobutylsulfamoyl) piperidine-3- carbonyl L-Thr-L- Dap-polymyxin B heptapeptide [Example D94]	0.06	0.06			32			0.03	16			0.5	1								
